Several values for one entry are separate records, joined by “and”; a condition that tells them apart may be missing. Equal values may be shown once. Read-outs that look alike come from different tables or passages of the source.
Legend:
HsGUS (human GUS) = target: T1, HsGUS (human GUS) (Homo sapiens, UniProt P08236); assay: GUS inhibition assay, hydrolysis of 4-methylumbelliferyl-β-glucuronide, HsGUS; assay type: biochemical; parameters: GUS activity (hydrolysis rate of MUG): unit not given here
T1 construct: HsGUS was prepared as described[37]; made in house
T1 sequence (P08236 23-651): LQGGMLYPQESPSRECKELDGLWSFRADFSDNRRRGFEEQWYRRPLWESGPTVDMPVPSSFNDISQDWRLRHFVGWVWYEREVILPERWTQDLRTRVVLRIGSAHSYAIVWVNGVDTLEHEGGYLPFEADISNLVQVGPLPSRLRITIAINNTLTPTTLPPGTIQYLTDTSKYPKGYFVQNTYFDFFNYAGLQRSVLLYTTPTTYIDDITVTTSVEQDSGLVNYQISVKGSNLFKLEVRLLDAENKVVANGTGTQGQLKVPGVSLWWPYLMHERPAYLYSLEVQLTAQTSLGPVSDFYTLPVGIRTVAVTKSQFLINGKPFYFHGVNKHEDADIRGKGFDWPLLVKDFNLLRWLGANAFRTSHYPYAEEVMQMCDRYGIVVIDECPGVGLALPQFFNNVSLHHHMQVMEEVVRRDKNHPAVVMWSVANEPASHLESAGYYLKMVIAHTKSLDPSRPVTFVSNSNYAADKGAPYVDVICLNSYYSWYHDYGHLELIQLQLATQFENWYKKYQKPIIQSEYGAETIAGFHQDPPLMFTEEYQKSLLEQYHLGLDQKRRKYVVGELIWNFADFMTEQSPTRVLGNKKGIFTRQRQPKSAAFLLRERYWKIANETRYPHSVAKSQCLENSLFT

[1] = target: EcGUS (Escherichia coli GUS) (Escherichia coli, UniProt P05804); assay: biochemical
Chain of EcGUS (Escherichia coli GUS) (P05804 whole entry): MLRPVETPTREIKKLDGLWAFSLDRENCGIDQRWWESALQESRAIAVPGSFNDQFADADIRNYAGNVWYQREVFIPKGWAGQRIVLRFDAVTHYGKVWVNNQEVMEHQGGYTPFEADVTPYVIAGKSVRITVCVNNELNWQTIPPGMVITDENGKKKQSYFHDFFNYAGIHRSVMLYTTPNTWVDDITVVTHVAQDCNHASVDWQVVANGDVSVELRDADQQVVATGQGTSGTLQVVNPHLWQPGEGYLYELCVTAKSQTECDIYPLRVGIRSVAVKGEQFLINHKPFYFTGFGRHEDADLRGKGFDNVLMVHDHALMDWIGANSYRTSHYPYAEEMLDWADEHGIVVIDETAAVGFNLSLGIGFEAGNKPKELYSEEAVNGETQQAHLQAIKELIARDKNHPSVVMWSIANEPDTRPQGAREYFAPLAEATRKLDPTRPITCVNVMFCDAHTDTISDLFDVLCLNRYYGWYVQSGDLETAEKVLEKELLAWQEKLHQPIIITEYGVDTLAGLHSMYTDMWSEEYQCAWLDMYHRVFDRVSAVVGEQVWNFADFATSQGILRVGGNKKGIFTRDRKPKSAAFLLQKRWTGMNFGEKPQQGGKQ

O=C(O)[C@H]1CNC[C@@H](O)[C@@H]1O [Inhibitor 1, Uronic isofagomine]
GUS activity (hydrolysis rate of MUG) (HsGUS (human GUS); [Inhibitor 1] =6.25 nM, [MUG] 1.6 mM): 5716.1 and 5569.72 | GUS activity (hydrolysis rate of MUG) (HsGUS (human GUS); [Inhibitor 1] =6.25 nM, [MUG] 2 mM): 6253.7 and 6084.56 | GUS activity (hydrolysis rate of MUG) (HsGUS (human GUS); [Inhibitor 1] =12.5 nM, [MUG] 0.1 mM): 964.973 and 946.536 | GUS activity (hydrolysis rate of MUG) (HsGUS (human GUS); [Inhibitor 1] =12.5 nM, [MUG] 0.2 mM): 1634.13 and 1650.2 | GUS activity (hydrolysis rate of MUG) (HsGUS (human GUS); [Inhibitor 1] =12.5 nM, [MUG] 0.4 mM): 2735.98 and 2661.78 | GUS activity (hydrolysis rate of MUG) (HsGUS (human GUS); [Inhibitor 1] =12.5 nM, [MUG] 0.6 mM): 3585.06 and 3536.5 | GUS activity (hydrolysis rate of MUG) (HsGUS (human GUS); [Inhibitor 1] =12.5 nM, [MUG] 0.8 mM): 4058.66 and 4004.34 | GUS activity (hydrolysis rate of MUG) (HsGUS (human GUS); [Inhibitor 1] =12.5 nM, [MUG] 1.2 mM): 4753.61 and 4787.97 | GUS activity (hydrolysis rate of MUG) (HsGUS (human GUS); [Inhibitor 1] =12.5 nM, [MUG] 1.6 mM): 5496.19 and 5468.5 | GUS activity (hydrolysis rate of MUG) (HsGUS (human GUS); [Inhibitor 1] =12.5 nM, [MUG] 2 mM): 6215.35 and 6326.21 | GUS activity (hydrolysis rate of MUG) (HsGUS (human GUS); [Inhibitor 1] =25 nM, [MUG] 0.1 mM): 888.487 and 880.944 | GUS activity (hydrolysis rate of MUG) (HsGUS (human GUS); [Inhibitor 1] =25 nM, [MUG] 0.2 mM): 1602.44 and 1479.41 | GUS activity (hydrolysis rate of MUG) (HsGUS (human GUS); [Inhibitor 1] =25 nM, [MUG] 0.4 mM): 2621.31 and 2595.47 | GUS activity (hydrolysis rate of MUG) (HsGUS (human GUS); [Inhibitor 1] =25 nM, [MUG] 0.6 mM): 3374.76 and 3226.51 | GUS activity (hydrolysis rate of MUG) (HsGUS (human GUS); [Inhibitor 1] =25 nM, [MUG] 0.8 mM): 3934.08 and 3700.76 | GUS activity (hydrolysis rate of MUG) (HsGUS (human GUS); [Inhibitor 1] =25 nM, [MUG] 1.2 mM): 4557.18 and 4846.86 | GUS activity (hydrolysis rate of MUG) (HsGUS (human GUS); [Inhibitor 1] =25 nM, [MUG] 1.6 mM): 5394.55 and 5298.67 | GUS activity (hydrolysis rate of MUG) (HsGUS (human GUS); [Inhibitor 1] =25 nM, [MUG] 2 mM): 6010.34 and 6068.98 | GUS activity (hydrolysis rate of MUG) (HsGUS (human GUS); [Inhibitor 1] =50 nM, [MUG] 0.1 mM): 874.409 and 866.834 | GUS activity (hydrolysis rate of MUG) (HsGUS (human GUS); [Inhibitor 1] =50 nM, [MUG] 0.2 mM): 1446.88 and 1448.8 | GUS activity (hydrolysis rate of MUG) (HsGUS (human GUS); [Inhibitor 1] =50 nM, [MUG] 0.4 mM): 2554.3 and 2362.71 | GUS activity (hydrolysis rate of MUG) (HsGUS (human GUS); [Inhibitor 1] =50 nM, [MUG] 0.6 mM): 3157.04 and 3034.34 | GUS activity (hydrolysis rate of MUG) (HsGUS (human GUS); [Inhibitor 1] =50 nM, [MUG] 0.8 mM): 3775.39 and 3558.36 | GUS activity (hydrolysis rate of MUG) (HsGUS (human GUS); [Inhibitor 1] =50 nM, [MUG] 1.2 mM): 4410.62 and 4573.1 | GUS activity (hydrolysis rate of MUG) (HsGUS (human GUS); [Inhibitor 1] =50 nM, [MUG] 1.6 mM): 4956.91 and 5204.72 | GUS activity (hydrolysis rate of MUG) (HsGUS (human GUS); [Inhibitor 1] =50 nM, [MUG] 2 mM): 5814.43 and 5846.27 | GUS activity (hydrolysis rate of MUG) (HsGUS (human GUS); [Inhibitor 1] =100 nM, [MUG] 0.1 mM): 714.467 and 698.837 | GUS activity (hydrolysis rate of MUG) (HsGUS (human GUS); [Inhibitor 1] =100 nM, [MUG] 0.2 mM): 1267.32 and 1255.83 | GUS activity (hydrolysis rate of MUG) (HsGUS (human GUS); [Inhibitor 1] =100 nM, [MUG] 0.4 mM): 2205.11 and 2224.51 | GUS activity (hydrolysis rate of MUG) (HsGUS (human GUS); [Inhibitor 1] =100 nM, [MUG] 0.6 mM): 2972.37 and 2813 | GUS activity (hydrolysis rate of MUG) (HsGUS (human GUS); [Inhibitor 1] =100 nM, [MUG] 0.8 mM): 3383.16 and 3413.02 | GUS activity (hydrolysis rate of MUG) (HsGUS (human GUS); [Inhibitor 1] =100 nM, [MUG] 1.2 mM): 4189.2 and 4174.02 | GUS activity (hydrolysis rate of MUG) (HsGUS (human GUS); [Inhibitor 1] =100 nM, [MUG] 1.6 mM): 4730.59 and 4939.86 | GUS activity (hydrolysis rate of MUG) (HsGUS (human GUS); [Inhibitor 1] =100 nM, [MUG] 2 mM): 5626.48 and 5332.35 | GUS activity (hydrolysis rate of MUG) (HsGUS (human GUS); [Inhibitor 1] =200 nM, [MUG] 0.1 mM): 493.269 and 528.779 | GUS activity (hydrolysis rate of MUG) (HsGUS (human GUS); [Inhibitor 1] =200 nM, [MUG] 0.2 mM): 887.805 and 953.041 | GUS activity (hydrolysis rate of MUG) (HsGUS (human GUS); [Inhibitor 1] =200 nM, [MUG] 0.4 mM): 1572.94 and 1681.59 | GUS activity (hydrolysis rate of MUG) (HsGUS (human GUS); [Inhibitor 1] =200 nM, [MUG] 0.6 mM): 2196.34 and 2140.47 | GUS activity (hydrolysis rate of MUG) (HsGUS (human GUS); [Inhibitor 1] =200 nM, [MUG] 0.8 mM): 2605.47 and 2684.29 | GUS activity (hydrolysis rate of MUG) (HsGUS (human GUS); [Inhibitor 1] =200 nM, [MUG] 1.2 mM): 3423.7 and 3486.94 | GUS activity (hydrolysis rate of MUG) (HsGUS (human GUS); [Inhibitor 1] =200 nM, [MUG] 1.6 mM): 4057.78 and 4000.72 | GUS activity (hydrolysis rate of MUG) (HsGUS (human GUS); [Inhibitor 1] =200 nM, [MUG] 2 mM): 4782.69 and 4439.05 | Ki [1]: 0.016 µM | Ki ([1]; 50 mM HEPES pH 7.5, 37 °C): 0.016 ± 0.002 µM | Ki ([1]; source data of Table 1, from plot of apparent Km against [inhibitor] (μM)): 0.0155 µM

Reference: PMC7933434, “Entropy-driven binding of gut bacterial β-glucuronidase inhibitors ameliorates irinotecan-induced toxicity” (Communications Biology, 2021)
